Laboratory results taken from patent US10669240B2, “5-substituted indazole-3-carboxamides and preparation and use thereof” (Samumed, LLC, priority 2014, dated 2020).

biological target: DYRK1A (Homo sapiens (Human), UniProt Q13627); test: DYRK1A activity Tau assay: pSer396 Tau in SH-SY5Y cells by ELISA / western blot; assay type: cell-based; conditions: overnight (16-18 h) exposure

SMILES	EC50 [nM]
O=C(NC1CC1)c1n[nH]c2ccc(-c3cncc(CN4CCCC4)c3)cc12 [Compound 148, N-Cyclopropyl-5-(5-(pyrrolidin-1-ylmethyl)pyridin-3-yl)-1H-indazole-3-carboxamide]	11
O=C(NC1CCCC1)c1n[nH]c2ccc(-c3cccnc3)cc12 [Compound 179, N-Cyclopentyl-5-(pyridin-3-yl)-1H-indazole-3-carboxamide]	9
O=C(NC1CCCC1)c1n[nH]c2ccc(-c3cncc(N4CCCC4)c3)cc12 [Compound 181, N-Cyclopentyl-5-(5-(pyrrolidin-1-yl)pyridin-3-yl)-1H-indazole-3-carboxamide]	47
O=C(NC1CCCCC1)c1n[nH]c2ccc(-c3cc(CN4CCCCC4)cc(F)c3F)cc12 [Compound 217, N-Cyclohexyl-5-(2,3-difluoro-5-(piperidin-1-ylmethyl)phenyl)-1H-indazole-3-carboxamide]	36
CC(C)(C)N1CCC(NC(=O)c2n[nH]c3ccc(-c4cncc(N5CCCC5)c4)cc23)CC1 [Compound 293, N-(1-(tert-Butyl)piperidin-4-yl)-5-(5-(pyrrolidin-1-yl)pyridin-3-yl)-1H-indazole-3-carboxamide]	22
C#CCN1CCC(NC(=O)c2n[nH]c3ccc(-c4cccnc4)cc23)CC1 [Compound 349, N-(1-(Prop-2-yn-1-yl)piperidin-4-yl)-5-(pyridin-3-yl)-1H-indazole-3-carboxamide]	5
CC#CCN1CCC(NC(=O)c2n[nH]c3ccc(-c4cccnc4)cc23)CC1 [Compound 369, N-(1-(But-2-yn-1-yl)piperidin-4-yl)-5-(pyridin-3-yl)-1H-indazole-3-carboxamide]	7
O=C(Nc1ccnc(C(F)(F)F)c1)c1n[nH]c2ccc(-c3cncc(N4CCCC4)c3)cc12 [Compound 820, 5-(5-(Pyrrolidin-1-yl)pyridin-3-yl)-N-(2-(trifluoromethyl)pyridin-4-yl)-1H-indazole-3-carboxamide]	81
O=C(Nc1cnc(C(F)(F)F)nc1)c1n[nH]c2ccc(-c3cncc(CN4CCCCC4)c3)cc12 [Compound 1116, 5-(5-(Piperidin-1-ylmethyl)pyridin-3-yl)-N-(2-(trifluoromethyl)pyrimidin-5-yl)-1H-indazole-3-carboxamide]	1
O=C(NC1CCN(Cc2ccccc2)CC1)c1n[nH]c2ccc(-c3cccnc3)cc12 [Compound 1152, N-(1-Benzylpiperidin-4-yl)-5-(pyridin-3-yl)-1H-indazole-3-carboxamide]	3
O=C(NC1CCN(CC(F)F)CC1)c1n[nH]c2ccc(-c3cccc(F)c3F)cc12 [Compound 1161, N-(1-(2,2-Difluoroethyl)piperidin-4-yl)-5-(2,3-difluorophenyl)-1H-indazole-3-carboxamide]	134
CN(C)CCNC(=O)c1n[nH]c2ccc(-c3cccc(F)c3F)cc12 [Compound 1165, 5-(2,3-Difluorophenyl)-N-(2-(dimethylamino)ethyl)-1H-indazole-3-carboxamide]	77
O=C(NC1CCN(CCF)CC1)c1n[nH]c2ccc(-c3cccnc3)cc12 [Compound 1180, N-(1-(2-Fluoroethyl)piperidin-4-yl)-5-(pyridin-3-yl)-1H-indazole-3-carboxamide]	6
O=C(NC1CCN(CC(F)F)CC1)c1n[nH]c2ccc(-c3cccnc3)cc12 [Compound 1181, N-(1-(2,2-Difluoroethyl)piperidin-4-yl)-5-(pyridin-3-yl)-1H-indazole-3-carboxamide]	6
O=C(NC1CCN(CC(F)(F)F)CC1)c1n[nH]c2ccc(-c3cccnc3)cc12 [Compound 1182, 5-(Pyridin-3-yl)-N-(1-(2,2,2-trifluoroethyl)piperidin-4-yl)-1H-indazole-3-carboxamide]	8
O=C(NCCN1CCCC1)c1n[nH]c2ccc(-c3cccnc3)cc12 [Compound 1195, 5-(Pyridin-3-yl)-N-(2-(pyrrolidin-1-yl)ethyl)-1H-indazole-3-carboxamide]	4
CN(C)Cc1cncc(-c2ccc3[nH]nc(C(=O)NC(C)(C)C)c3c2)c1 [Compound 1198, N-(tert-Butyl)-5-(5-((dimethylamino)methyl)pyridin-3-yl)-1H-indazole-3-carboxamide]	491
CC(C)(C)NC(=O)c1n[nH]c2ccc(-c3cncc(CN4CCCC4)c3)cc12 [Compound 1200, N-(tert-Butyl)-5-(5-(pyrrolidin-1-ylmethyl)pyridin-3-yl)-1H-indazole-3-carboxamide]	374
CC(C)(C)NC(=O)c1n[nH]c2ccc(-c3cncc(CN4CCCCC4)c3)cc12 [Compound 1202, N-(tert-Butyl)-5-(5-(piperidin-1-ylmethyl)pyridin-3-yl)-1H-indazole-3-carboxamide]	144
CC(C)(C)NC(=O)c1n[nH]c2ccc(-c3cncc(CN4CCC4)c3)cc12 [Compound 1206, 5-(5-(Azetidin-1-ylmethyl)pyridin-3-yl)-N-(tert-butyl)-1H-indazole-3-carboxamide]	207
CC(C)(C)NC(=O)c1n[nH]c2ccc(-c3cncc(CN4CC(F)(F)C4)c3)cc12 [Compound 1210, N-(tert-Butyl)-5-(5-((3,3-difluoroazetidin-1-yl)methyl)pyridin-3-yl)-1H-indazole-3-carboxamide]	128
CC(C)(C)NC(=O)c1n[nH]c2ccc(-c3cncc(N4CCCC4)c3)cc12 [Compound 1214, N-(tert-Butyl)-5-(5-(pyrrolidin-1-yl)pyridin-3-yl)-1H-indazole-3-carboxamide]	419
CCC(CC)NC(=O)c1n[nH]c2ccc(-c3cncc(N4CCCC4)c3)cc12 [Compound 1215, N-(Pentan-3-yl)-5-(5-(pyrrolidin-1-yl)pyridin-3-yl)-1H-indazole-3-carboxamide]	199
CC(C)NC(=O)c1n[nH]c2ccc(-c3cncc(N4CCCC4)c3)cc12 [Compound 1245, N-Isopropyl-5-(5-(pyrrolidin-1-yl)pyridin-3-yl)-1H-indazole-3-carboxamide]	25

Next, values leading:

EC50 [nM]	SMILES
45	CCN(CC)Cc1cncc(-c2ccc3[nH]nc(C(=O)NC(C)C)c3c2)c1 [Compound 1246, 5-(5-((Diethylamino)methyl)pyridin-3-yl)-N-isopropyl-1H-indazole-3-carboxamide]
53	CC(C)NC(=O)c1n[nH]c2ccc(-c3cncc(Cl)c3)cc12 [Compound 1247, 5-(5-Chloropyridin-3-yl)-N-isopropyl-1H-indazole-3-carboxamide]
174	CC(C)NC(=O)c1n[nH]c2ccc(-c3cncnc3)cc12 [Compound 1248, N-Isopropyl-5-(pyrimidin-5-yl)-1H-indazole-3-carboxamide]
148	CC(C)NC(=O)c1n[nH]c2ccc(-c3cncc4ccccc34)cc12 [Compound 1249, N-Isopropyl-5-(isoquinolin-4-yl)-1H-indazole-3-carboxamide]
49	CC(C)NC(=O)c1n[nH]c2ccc(-c3cncc(F)c3)cc12 [Compound 1250, 5-(5-Fluoropyridin-3-yl)-N-isopropyl-1H-indazole-3-carboxamide]
45	CC(C)NC(=O)c1n[nH]c2cc(F)c(-c3cncc(F)c3)cc12 [Compound 1251, 6-Fluoro-5-(5-fluoropyridin-3-yl)-N-isopropyl-1H-indazole-3-carboxamide]
421	CCN(CC)Cc1cncc(-c2ccc3[nH]nc(C(=O)NC(C)(C)C)c3c2)c1 [Compound 1252, N-(tert-Butyl)-5-(5-((diethylamino)methyl)pyridin-3-yl)-1H-indazole-3-carboxamide]
150	CC(C)(C)NC(=O)c1n[nH]c2ccc(-c3cccnc3)cc12 [Compound 1253, N-(tert-Butyl)-5-(pyridin-3-yl)-1H-indazole-3-carboxamide]
9	CC(C)CNC(=O)c1n[nH]c2ccc(-c3cccnc3)cc12 [Compound 1254, N-Isobutyl-5-(pyridin-3-yl)-1H-indazole-3-carboxamide]
35	CC(C)CNC(=O)c1n[nH]c2ccc(-c3cncc(Cl)c3)cc12 [Compound 1255, 5-(5-Chloropyridin-3-yl)-N-isobutyl-1H-indazole-3-carboxamide]
122	CC[C@@H](C)NC(=O)c1n[nH]c2ccc(-c3cncc(Cl)c3)cc12 [Compound 1256, (R)—N-(sec-butyl)-5-(5-chloropyridin-3-yl)-1H-indazole-3-carboxamide]
14	CC[C@@H](C)NC(=O)c1n[nH]c2ccc(-c3cccnc3)cc12 [Compound 1257, (R)—N-(sec-butyl)-5-(pyridin-3-yl)-1H-indazole-3-carboxamide]
20	CC[C@H](C)NC(=O)c1n[nH]c2ccc(-c3cccnc3)cc12 [Compound 1258, (S)—N-(sec-butyl)-5-(pyridin-3-yl)-1H-indazole-3-carboxamide]
135	CN(C)CCCNC(=O)c1n[nH]c2ccc(-c3cccc(F)c3F)cc12 [Compound 1260, 5-(2,3-Difluorophenyl)-N-(3-(dimethylamino)propyl)-1H-indazole-3-carboxamide]
75	O=C(NCCN1CCCCC1)c1n[nH]c2ccc(-c3cccc(F)c3F)cc12 [Compound 1266, 5-(2,3-Difluorophenyl)-N-(2-(piperidin-1-yl)ethyl)-1H-indazole-3-carboxamide]
23	O=C(NCCN1CCOCC1)c1n[nH]c2ccc(-c3cccc(F)c3F)cc12 [Compound 1268, 5-(2,3-Difluorophenyl)-N-(2-morpholinoethyl)-1H-indazole-3-carboxamide]
7	CCN(CC)Cc1cncc(-c2ccc3[nH]nc(C(=O)NC4CC4)c3c2)c1 [Compound 1270, N-Cyclopropyl-5-(5-((diethylamino)methyl)pyridin-3-yl)-1H-indazole-3-carboxamide]
19	O=C(NC1CC1)c1n[nH]c2ccc(-c3cncc(CN4CCC4)c3)cc12 [Compound 1271, 5-(5-(Azetidin-1-ylmethyl)pyridin-3-yl)-N-cyclopropyl-1H-indazole-3-carboxamide]
11	CN1CCC2(CC1)CC(NC(=O)c1n[nH]c3ccc(-c4cncc(F)c4)cc13)C2 [Compound 1277, 5-(5-Fluoropyridin-3-yl)-N-(7-methyl-7-azaspiro[3.5]nonan-2-yl)-1H-indazole-3-carboxamide]
